Results from patent publication US20090186827A1, “Process of inhibiting cell death in injured cartilage” (The Scripps Research Institute, priority 2001, published 2009).
“Also recorded” adds a separate entry of the source. Where a SMILES comes first, the peptide text is derived from it. The star is where a group is joined. Cbz = O=C(OCc1ccccc1)*; CH2F = FC*

Columns and labels:
human cartilage explants = assay: Load-induced chondrocyte apoptosis (TUNEL) in human cartilage explants; assay type: cell-based; settings: loaded explants (30% strain) cultured in 100 mM z-VAD.fmk after injury, 96 hours post-injury
Description: Cartilage explants. Macroscopically normal tibial and femoral articular surfaces were selected from human cadaver donors between 18 and 45 years of age. Using sterile techniques, full thickness cartilage was separated from underlying subchondral bone with a scalpel. 5 mm diameter cylindrical explants, ranging from 2 to 2.8 mm in thickness, cored out using a dermal punch (Acuderm, Inc., Ft. Lauderdale, Fla.). Explants taken from adjacent sites were used as matched controls for each group in each experiment to minimize variation in cartilage response due to differences in thickness and location within the joint. […]
(§1) Loading apparatus and procedure. […] Stress and strain data were recorded during the test.
Caspase inhibition. […] Percentage apoptosis was measured at 96 hours post-injury in three groups (control, loaded, and loaded with z-VAD.fmk) with ten explants each in two separate experiments.
Apoptosis detection. […] This was detected by immunohistochemical staining with M30 (Cytodeath, Boehringer Mannheim, Eugene, Oreg.), a monoclonal antibody that recognizes the neo-epitope exposed in early apoptosis.
Chondrocyte apoptosis after mechanical injury to human cartilage. […] GAG release and percentage of cells undergoing apoptosis were measured at 96 hours after injury. […]

[1] = system: bovine cartilage explants; assay: Glycosaminoglycan (GAG) release assay, mechanically injured bovine cartilage explants; assay type: cell-based; settings: loaded bovine explants treated with caspase inhibitor
Experimental: Glycosaminoglycan release assay. To estimate GAG depletion and release, the concentration of sulfated glycosaminoglycans was measured using […] (DMMB) as a monitor of spectrophotometric changes which occur during the formation of the sulfated GAG dye complex (Farndale, et al. (1986) Biochim. Biophys. Acts. 883, 173-177, Goldberg, et al. (1993) Agents Actions 39 Spec No, C163-C165). For GAG content measurement, samples were digested in papain and collagenase and the concentration of sulfated GAG measured using DMMB. To generate a standard curve, chondroitin-6-sulfate (Sigma, St. Louis, Mo.) was used at concentrations between 1 and 200 μg/ml. GAG released in media was normalized to the pooled mean GAG content of Control (uninjured) cartilage explants and expressed as a percentage of total GAG content.
Inhibition of apoptosis. To determine whether apoptosis could be prevented by caspase inhibition, 12 explants were loaded at 23 MPa (High Load) and cultured for 48 hours. […] Percent apoptosis and GAG release in media was measured as described above.
Release of sulfated glycosaminoglycans (GAG) was analyzed as a measure of the extent of damage sustained by the explant. […] GAG depletion was assessed by dimethylene blue binding assays of the culture supernatants and this correlated with the reduced of safranin O staining of the cartilage sections.

[2] = system: bovine cartilage explants; assay: Load-induced chondrocyte apoptosis (TUNEL) in bovine cartilage explants; assay type: cell-based
Description: Cartilage explants. Macroscopically normal weight bearing portions of freshly slaughtered skeletally mature bovine femoral condyles were selected from animals between 2 and 6 years of age (Animal Technologies, Austin, Tex.). Only joints without visible signs of degeneration or aging were selected. Using sterile techniques, full thickness cartilage was separated from underlying subchondral bone with a scalpel and 5 mm diameter cylindrical explants, ranging from 1 to 1.8 mm in height, cored out using a dermal punch (Acuderm, Inc., Ft. Lauderdale, Fla.). Explants taken from adjacent sites were used as matched controls for each group in each experiment to minimize variation in cartilage response due to differences in thickness and location within the joint. Each explant was weighed and allowed to stabilize at 37° C. and 5% CO2 for 48 hours in 1 ml of Dulbecco's modified Eagle's medium (DMEM) supplemented with 10% fetal bovine serum (FBS), L-glutamine, antibiotics and 50 μg/ml ascorbic acid.
as §1
Apoptosis detection. […] TUNEL positive cells emit a bright green fluorescence while TUNEL negative cells display an orange color due to propidium iodide counterstaining. […] Cells in all areas were counted and divided into TUNEL positive or TUNEL negative. […]

[3] = system: femoral and tibial articular cartilage; assay: Intraarticular injection of caspase inhibitor in rabbits with anterior cruciate ligament transection (ACLT); assay type: in vivo, New Zealand White rabbits
Experimental: Intraarticular injection of caspase inhibitor in rabbits with ligament transection. A pilot study was performed to assess feasibility and efficacy of caspase inhibition in vivo. Eight New Zealand White rabbits were divided into anterior cruciate ligament transection (ACLT) and ACLT+caspase inhibitor (CI) groups. Both groups underwent bilateral ACLT. The ACLT+CI group was treated with intra-articular injections of 25 μg of z-VAD.fmk three times per week for six weeks while the control group received saline injections. Rabbits were euthanised at six weeks and femoral and tibial articular cartilage evaluated by India ink staining and histologic Mankin grading after Safranin-O stain.

SMILES: COC(=O)CC(NC(=O)C(C)NC(=O)C(NC(=O)OCc1ccccc1)C(C)C)C(=O)CF (stereo not drawn) [z-VAD.fmk, benzyloxycarbonyl-Val-Ala-Asp (OMe) fluoromethylketone] (Cbz-Val-Ala-Asp(OMe)-CH2F; configuration not given here)
- reduction in apoptotic rates (human cartilage explants): 50%
- GAG release / GAG depletion (in words) [1]: reduction in GAG release; also recorded: normalization of the GAG depletion
- reduction in the apoptosis rate ([2]; high and intermediate load groups): > 50%
- chondrocyte apoptosis after mechanical injury (in words) ([2]; loaded bovine explants, z-VAD.fmk 100 μM, 48 hours): reduced chondrocyte apoptosis
- reduction of the size of the cartilage lesions (surface area, India ink stained femoral condyles) ([3]; 25 μg intra-articular three times per week for six weeks, bilateral ACLT): ~80%
- cartilage lesions under India ink examination (in words) ([3]; ACLT+CI group, six weeks): lesions that were smaller in area
- knees with Mankin grade 5 or higher ([3]; ACLT+CI group, six weeks, 4/8 knees): 50%
